Measured values reported in US8470805B2, “Processes for preparing piperazinium salts of KMUP and use thereof” (Kaohsiung Medical University, priority 2009, dated 2013).

Legend:
RAW 264.7 cells = assay: Inhibition of RANKL-induced osteoclast differentiation (TRAP staining); format: cell-based; conditions: 5 μM, 5 days
H1N1 virus = format: cell-based; conditions: MDCK culture infected with H1N1 virus, n=6
C57BL/6J mice = assay: The lipid-lowering effect in C57BL/6J mice (high-fat diet); format: in vivo; conditions: 2.5 mg/kg orally, HFD, after 21 days
Experimental: 8-week C57BL/6J mice are divided into standard diet (STD) group and the high-fat diet (HFD) group. In the HFD group, the KMUP-1 HCl salt (1, 2.5 and 5 mg/kg), the simvastatin (5 mg/kg), the KMUP-1-Nicotinic acid complex (1 and 5 mg/kg), the KMUP-1-Simvastatinic acid complex (1 and 5 mg/kg), KMUP-1-Gemfibrozil complex (2.5 mg/kg), KMUP-1-Fibric acid complex (2.5 mg/kg), KMUP-1-γ-polyglutamic acid complex (2.5 mg/kg) and KMUP-1-Citric acid complex (2.5 mg/kg) are administered orally. After 21 days, the amounts (mg/dl) of the triglyceride (TG), the total cholesterol (tot.-C), the high density lipoprotein cholesterol (HDL-C), the low density lipoprotein cholesterol (LDL-C) and the serum glucose of six mice for each group are measured as shown in Tables 2 and 3.

[1] = tested on: STZ-induced diabetic rats; assay: Change of insulin and fasting blood glucose after administration, STZ-induced diabetic rats; format: in vivo; conditions: 4 mg/kg
Experimental: Nateglinide, repaglinide or the placebo is administered on day 1 before one hour of the breakfast, and the KMUP-1/KMUP-1-Nateglinide or KMUP-1-Repaglinide are orally administered at 1, 2, 3, 4, 5 and 6 hrs respectively. The amount of the serum glucose (mg/dl), the amount of the serum insulin (mg/dl), the body weight (g) and the change of the body weight are measured.

Cn1c(=O)c2c(ncn2CCN2CCN(c3ccccc3Cl)CC2)n(C)c1=O [KMUP-1, 7-[2-[4-(2-chlorobenzene)piperazinyl]ethyl]-1,3-dimethylxanthine]
TRAP-positive cell count caused by RANKL (in words) (RAW 264.7 cells): suppressed the TRAP-positive cell count

CC[C@H](C)C(=O)O[C@H]1C[C@H](O)C=C2C=C[C@H](C)[C@H](CC[C@@H](O)C[C@@H](O)CC(=O)O)[C@H]21.Cn1c(=O)c2c(ncn2CCN2CCN(c3ccccc3Cl)CC2)n(C)c1=O [KMUP-1-Pravastatinic acid, KMUP-1-Pravastatinic acid complex]
IC50 (H1N1 virus): 2.1 µg/mL

CC(C)c1c(C(=O)Nc2ccccc2)c(-c2ccccc2)c(-c2ccc(F)cc2)n1CC[C@@H](O)C[C@@H](O)CC(=O)O.Cn1c(=O)c2c(ncn2CCN2CCN(c3ccccc3Cl)CC2)n(C)c1=O [KMUP-1-Atorvastatinic acid, KMUP-1-Atorvastatinic acid complex]
TRAP-Positive Cells (RAW 264.7 cells; RANKL 10 μg/ml, n=5): 78 ± 3

Cc1ccc(C)c(OCCCC(C)(C)C(=O)O)c1.Cn1c(=O)c2c(ncn2CCN2CCN(c3ccccc3Cl)CC2)n(C)c1=O [KMUP-1-Gemfibrozil, KMUP-1-gemfibrozil complex]
HDL-C (C57BL/6J mice): 98.7 ± 1.8 mg/dL | LDL-C (C57BL/6J mice): 18.2 ± 1.8 mg/dL | TG (C57BL/6J mice): 79.2 ± 4.6 mg/dL | tot.-C (C57BL/6J mice): 130.7 ± 1.7 mg/dL

CC(C)[C@H]1CC[C@H](C(=O)N[C@H](Cc2ccccc2)C(=O)O)CC1.Cn1c(=O)c2c(ncn2CCN2CCN(c3ccccc3Cl)CC2)n(C)c1=O [KMUP-1-Nat, KMUP-1-Nateglinide Complex]
The change of the fasting blood glucose after administration ([1]; 1 hr): 4.67 ± 0.7 mg/dL | The change of the insulin after administration ([1]; 1 hr): 38 ± 2.7 U/mL | The change of the fasting blood glucose after administration ([1]; 2 hr): 0.8 ± 0.4 mg/dL | The change of the insulin after administration ([1]; 2 hr): 51.3 ± 4.3 U/mL | The change of the insulin after administration ([1]; 3 hr): 31.8 ± 3.7 U/mL | The change of the insulin after administration ([1]; 4 hr): 21.8 ± 5.3 U/mL | The change of the fasting blood glucose after administration ([1]; 6 hr): -0.2 ± 0.3 mg/dL | The change of the insulin after administration ([1]; 6 hr): 3.4 ± 0.6 U/mL

CCOc1cc(CC(=O)N[C@@H](CC(C)C)c2ccccc2N2CCCCC2)ccc1C(=O)O [Rep, Repaglinide, reference compound]
The change of the fasting blood glucose after administration ([1]; 1 hr): 3.2 ± 0.8 mg/dL | The change of the insulin after administration ([1]; 1 hr): 47.5 ± 3.7 U/mL | The change of the fasting blood glucose after administration ([1]; 2 hr): 0.6 ± 0.1 mg/dL | The change of the insulin after administration ([1]; 2 hr): 49.3 ± 3.4 U/mL | The change of the insulin after administration ([1]; 3 hr): 24.4 ± 4.6 U/mL | The change of the insulin after administration ([1]; 4 hr): 19.8 ± 3.6 U/mL | The change of the fasting blood glucose after administration ([1]; 6 hr): -0.1 ± 0.4 mg/dL | The change of the insulin after administration ([1]; 6 hr): 4.8 ± 0.4 U/mL

CC(C)[C@H]1CC[C@H](C(=O)N[C@H](Cc2ccccc2)C(=O)O)CC1 [Nat, Nateglinide, reference compound]
The change of the fasting blood glucose after administration ([1]; 1 hr): 4.7 ± 0.6 mg/dL | The change of the insulin after administration ([1]; 1 hr): 42.5 ± 4.2 U/mL | The change of the fasting blood glucose after administration ([1]; 2 hr): 0.3 ± 0.2 mg/dL | The change of the insulin after administration ([1]; 2 hr): 49.3 ± 3.4 U/mL | The change of the insulin after administration ([1]; 3 hr): 24.4 ± 4.6 U/mL | The change of the insulin after administration ([1]; 4 hr): 17.8 ± 2.8 U/mL | The change of the fasting blood glucose after administration ([1]; 6 hr): -0.2 ± 0.3 mg/dL | The change of the insulin after administration ([1]; 6 hr): 4.4 ± 0.6 U/mL

KMUP-1-Repaglinide Complex
The change of the fasting blood glucose after administration ([1]; 1 hr): 5.7 ± 0.8 mg/dL | The change of the insulin after administration ([1]; 1 hr): 39.5 ± 3.8 U/mL | The change of the fasting blood glucose after administration ([1]; 2 hr): 0.5 ± 0.2 mg/dL | The change of the insulin after administration ([1]; 2 hr): 47.3 ± 2.2 U/mL | The change of the insulin after administration ([1]; 3 hr): 27.4 ± 2.8 U/mL | The change of the insulin after administration ([1]; 4 hr): 14.8 ± 3.7 U/mL | The change of the fasting blood glucose after administration ([1]; 6 hr): -0.3 ± 0.1 mg/dL | The change of the insulin after administration ([1]; 6 hr): 2.8 ± 0.5 U/mL

CC(C)(Oc1ccc(C(=O)c2ccc(Cl)cc2)cc1)C(=O)O.Cn1c(=O)c2c(ncn2CCN2CCN(c3ccccc3Cl)CC2)n(C)c1=O [KMUP-1-Fibric acid, KMUP-1-fibric acid complex]
HDL-C (C57BL/6J mice): 98.4 ± 1.3 mg/dL | LDL-C (C57BL/6J mice): 18.4 ± 2.2 mg/dL | TG (C57BL/6J mice): 80.2 ± 3.2 mg/dL | tot.-C (C57BL/6J mice): 132.7 ± 1.3 mg/dL
